Settings: 303.15 K, Liquid, Vibrating tube method

CCCCCC(=O)OCC(COC(=O)CCCCC)(COC(=O)CCCCC)COC(=O)CCCCC [pentaerythritol tetrahexanoate]
Settings | mass density [kg/m3]
20855 kPa | 1001
20888 kPa | 1001.2
20914 kPa | 1001.2
20942 kPa | 1001.1
20975 kPa | 1001.1
21003 kPa | 1001.2
21057 kPa | 1001.1
21090 kPa | 1001.2
21118 kPa | 1001.3
21151 kPa | 1001.3
21178 kPa | 1001.2
21207 kPa | 1001.4
21241 kPa | 1001.3
21268 kPa | 1001.5
21297 kPa | 1001.3
21331 kPa | 1001.4
21360 kPa | 1001.3
21388 kPa | 1001.4
21422 kPa | 1001.4
21451 kPa | 1001.6
21480 kPa | 1001.5
21514 kPa | 1001.5
21543 kPa | 1001.5
21572 kPa | 1001.4
21607 kPa | 1001.6
21636 kPa | 1001.5
21665 kPa | 1001.5
21701 kPa | 1001.5
21731 kPa | 1001.6
21761 kPa | 1001.6
21796 kPa | 1001.7
21826 kPa | 1001.7
21855 kPa | 1001.7
21885 kPa | 1001.6
21921 kPa | 1001.7
21951 kPa | 1001.7
21981 kPa | 1001.8
22018 kPa | 1001.8
22048 kPa | 1001.8
22079 kPa | 1001.8
22116 kPa | 1001.9
22149 kPa | 1001.8
22180 kPa | 1001.9
22211 kPa | 1002
22242 kPa | 1001.8
22280 kPa | 1001.9
22311 kPa | 1002
22348 kPa | 1002
22379 kPa | 1002
22411 kPa | 1002.1
22442 kPa | 1002
22481 kPa | 1002.1
22513 kPa | 1002
22546 kPa | 1002
22581 kPa | 1002.1
22619 kPa | 1002.2
22651 kPa | 1002.1
22683 kPa | 1002.2
22715 kPa | 1002.2
22754 kPa | 1002.2
22786 kPa | 1002.3
22819 kPa | 1002.3
22858 kPa | 1002.4
22891 kPa | 1002.2
22930 kPa | 1002.3
22964 kPa | 1002.4
22998 kPa | 1002.3
23032 kPa | 1002.4
23072 kPa | 1002.4
23106 kPa | 1002.3
23140 kPa | 1002.4
23181 kPa | 1002.4
23215 kPa | 1002.5
23256 kPa | 1002.4
23291 kPa | 1002.4
23325 kPa | 1002.5
23359 kPa | 1002.5
23398 kPa | 1002.5
24292 kPa | 1003
24323 kPa | 1003
24354 kPa | 1003.1
24390 kPa | 1002.9
24841 kPa | 1003.3
24870 kPa | 1003.4
24905 kPa | 1003.4
24964 kPa | 1003.4
25000 kPa | 1003.5
25312 kPa | 1003.6
25349 kPa | 1003.7
25380 kPa | 1003.6
25410 kPa | 1003.8
25447 kPa | 1003.7
25478 kPa | 1003.7
25518 kPa | 1003.7
25545 kPa | 1003.9
25582 kPa | 1003.9
25614 kPa | 1003.7
25643 kPa | 1003.8
25916 kPa | 1003.9
25947 kPa | 1003.9
25973 kPa | 1004.1
26004 kPa | 1004
26030 kPa | 1004.2
26056 kPa | 1004
26088 kPa | 1004.1
26114 kPa | 1004.1
26140 kPa | 1004.1
26167 kPa | 1004.2
26199 kPa | 1004.1
26225 kPa | 1004.2
26258 kPa | 1004.3
26285 kPa | 1004.1
26312 kPa | 1004.2
26339 kPa | 1004.2
26371 kPa | 1004.2
26399 kPa | 1004.2
26427 kPa | 1004.2
26460 kPa | 1004.3
26488 kPa | 1004.3
26520 kPa | 1004.3
26545 kPa | 1004.4
26569 kPa | 1004.3
26593 kPa | 1004.4
26623 kPa | 1004.3
26648 kPa | 1004.2
26672 kPa | 1004.4
26701 kPa | 1004.4
26726 kPa | 1004.3
26751 kPa | 1004.5
26776 kPa | 1004.4
26806 kPa | 1004.4
26830 kPa | 1004.4
26856 kPa | 1004.5
26885 kPa | 1004.5
26910 kPa | 1004.5
26936 kPa | 1004.7
26966 kPa | 1004.6
26991 kPa | 1004.4
27016 kPa | 1004.6
27041 kPa | 1004.7
27071 kPa | 1004.6
27097 kPa | 1004.6
27127 kPa | 1004.5
27152 kPa | 1004.5
27178 kPa | 1004.7
27208 kPa | 1004.8
27234 kPa | 1004.7
27260 kPa | 1004.7
27291 kPa | 1004.6
27317 kPa | 1004.6
27343 kPa | 1004.7
27369 kPa | 1004.9
27400 kPa | 1004.9
27426 kPa | 1004.8
27458 kPa | 1004.7
27484 kPa | 1004.8
27511 kPa | 1004.8
27537 kPa | 1004.8
27564 kPa | 1004.8
27595 kPa | 1004.9
27621 kPa | 1004.9
27654 kPa | 1005
27682 kPa | 1004.9
27708 kPa | 1005
27734 kPa | 1004.9
27761 kPa | 1005
27793 kPa | 1005
27820 kPa | 1005.1
27852 kPa | 1005.1
27879 kPa | 1005.1
27906 kPa | 1005
27938 kPa | 1005
27965 kPa | 1005.2
27993 kPa | 1005.2
28027 kPa | 1005.2
28056 kPa | 1005
28083 kPa | 1005.1
28110 kPa | 1005.1
28143 kPa | 1005.1
28171 kPa | 1005.3
28199 kPa | 1005.3
28227 kPa | 1005.2
28260 kPa | 1005.2
28288 kPa | 1005.2
28317 kPa | 1005.3
28351 kPa | 1005.4
28379 kPa | 1005.3
28409 kPa | 1005.3
28443 kPa | 1005.3
28471 kPa | 1005.3
28500 kPa | 1005.4
28535 kPa | 1005.4
28564 kPa | 1005.4
28594 kPa | 1005.5
28658 kPa | 1005.5
28687 kPa | 1005.5
28718 kPa | 1005.5
28743 kPa | 1005.5
28769 kPa | 1005.6
28800 kPa | 1005.6
28826 kPa | 1005.5
28851 kPa | 1005.6
28877 kPa | 1005.6
28909 kPa | 1005.6
29460 kPa | 1006.1
29484 kPa | 1005.9
29506 kPa | 1005.9
29534 kPa | 1006
29556 kPa | 1006
29580 kPa | 1006
29607 kPa | 1006
29630 kPa | 1006
29658 kPa | 1006.1
29682 kPa | 1006.1
29705 kPa | 1006.1
29729 kPa | 1006
29756 kPa | 1006
29780 kPa | 1006.1
29804 kPa | 1006.2
29831 kPa | 1006.2
29856 kPa | 1006.1
29879 kPa | 1006.1
29902 kPa | 1006.2
29931 kPa | 1006.1
29954 kPa | 1006.1
29983 kPa | 1006.2
30006 kPa | 1006.3
30030 kPa | 1006.3
30059 kPa | 1006.2
30083 kPa | 1006.3
30108 kPa | 1006.3
30132 kPa | 1006.3
30161 kPa | 1006.4
30185 kPa | 1006.4
30209 kPa | 1006.2
30233 kPa | 1006.3
30262 kPa | 1006.3
30287 kPa | 1006.3
31166 kPa | 1006.8
31197 kPa | 1006.8
31224 kPa | 1006.8
31255 kPa | 1006.9
31283 kPa | 1006.9
31310 kPa | 1006.9
31337 kPa | 1006.9
31370 kPa | 1007
31398 kPa | 1007
31426 kPa | 1007
31459 kPa | 1006.9
31483 kPa | 1007.1
31506 kPa | 1007.1
31534 kPa | 1006.9
31556 kPa | 1007.1
31580 kPa | 1007
31608 kPa | 1007.1
31632 kPa | 1007.1
31656 kPa | 1007.2
31683 kPa | 1007.1
31701 kPa | 1007.2
31719 kPa | 1007.1
31737 kPa | 1007.2
31758 kPa | 1007.1
31777 kPa | 1007.2
31795 kPa | 1007.2
31814 kPa | 1007.4
31835 kPa | 1007.2
31853 kPa | 1007.2
31875 kPa | 1007.2
31893 kPa | 1007.3
31911 kPa | 1007.3
31933 kPa | 1007.2
31951 kPa | 1007.3
31969 kPa | 1007.3
31990 kPa | 1007.5
32009 kPa | 1007.4
32027 kPa | 1007.3
32049 kPa | 1007.3
32068 kPa | 1007.3
32086 kPa | 1007.4
32104 kPa | 1007.4
32127 kPa | 1007.5
32145 kPa | 1007.4
32167 kPa | 1007.4
32186 kPa | 1007.4
32204 kPa | 1007.4
32226 kPa | 1007.5
32244 kPa | 1007.4
32403 kPa | 1007.6
32426 kPa | 1007.6

— the NIST ThermoML archive (doi:10.1021/je060271a)
